In assay [1] the test system is Neurospora crassa. Nature of the assay: Secreted protein concentration in shake flask culture supernatant. The format is cell-based. To be noted: Δcre-1; time not stated. As to the method: Strains were inoculated at an OD595 equal to 0.05 in 100 ml Vogel's salts with 1% (wt/vol) sucrose in a 250 ml Erlenmeyer flask and grown under constant light at 200 rpm for 24 hours. Cultures were then induced with 2% sucrose, 2% cellobiose, 1% sucrose/1% cellobiose, or 1% sucrose/1% Avicel®. Cultures continued to grow under constant light at 200 rpm for 5 days with supernatant collected at 1, 2, 3, 4 and 5 day. The collected supernatant was filtered through a 0.2 μm PES filter to remove biomass before being stored at −20° C. until all samples were collected. To visualize the secreted proteins, 15 μl of unconcentrated supernatant was run on a Criterion 10% Tris-HCL polyacrylamide gel and stained with Thermo Scientific GelCode Blue Stain Reagent.

Assay [2] has as its system Neurospora crassa. The assay can be described thus: Bioreactor cellulase production, total secreted protein in supernatant. The format is cell-based. The settings on record: pre-grown 24 hours on 1% sucrose, induction with 0.2%. The method, then:
Cellulase production was carried out in a 3.7 L bioreactor (BioEngineering AG) at an operating volume of 1 L. The bioreactor was equipped with one 48 mm Rushton impeller and four equally spaced baffles to provide adequate mixing. Impeller speed was controlled at 200 rpm for 8 hours to allow spore germination followed by 500 rpm for the remainder of the experiment. The temperature was maintained at 25° C., and medium pH was controlled at 5.5 using 40% phosphoric acid and 1:5 diluted ammonium hydroxide. The dissolved oxygen was maintained at a level greater than 20% of the saturation value of the medium by varying the aeration rate between 0.5 and 3 VVM in response to the dissolved oxygen tension. Minimal growth medium with 1% w/v sucrose as the sole carbon source (unless otherwise noted) was inoculated with 10^9 conidia. After 24 hours initial growth, cellulase production was induced with either cellobiose or Avicel® added to a final concentration of 0.2% w/v. Supernatant samples were collected at timepoint 0, 12 hours before induction, at induction, as well as 4, 8, 12, 24 and 36 hours post induction. Samples were spun at 4000 rpm for 5 minutes to pellet biomass and the supernatant was filtered through a 0.2 μm PES filter before being stored at −20° C. until all samples were collected.
Total secreted proteins were measured using the Bio-Rad Protein Assay kit (Bio-Rad) and visualized by running 15 μl of unconcentrated supernatant on a Criterion 4-14% Tris-HCL polyacrylamide gel and stained with Thermo Scientific GelCode Blue Stain Reagent.

With `O=C[C@H](O)[C@@H](O)[C@H](O[C@@H]1O[C@H](CO)[C@@H](O)[C@H](O)[C@H]1O)[C@H](O)CO` [cellobiose], the “cellulase secretion (secreted protein)” value in assay [1] amounted to 653 µg/mL. Further, the “protein in the supernatant” value in assay [2] (WT) is 0.05 mg/mL; in assay [2] (Δ3βG), 0.12 mg/mL; in assay [2] (Δ3βGΔcre), 0.24 mg/mL.

(Values after US9822373B2, “Mutant cells for protein secretion and lignocellulose degradation” (The Regents of the University of California, priority 2011, dated 2017).)
